Assays:
CDK7-Cyclin H-MAT1 = biological target: T1, CDK7-Cyclin H-MAT1 (Homo sapiens, UniProt P50613); experiment: FRET-based LANCE Ultra in vitro enzymatic kinase assay, CDK7; type: biochemical
T1 construct: purchased Carna Biosciences
Description: IC50 values for CDK inhibitors were determined using the fluorescence resonance energy transfer (FRET)-based LANCE Ultra KinaSelect Ser/Thr kit (Perkin Elmer). Kinase activity and inhibition were measured according to the manufacturer’s instructions and as previously described. […] FRET signals were recorded in a time-resolved manner in a Perkin Elmer EnVision reader. Purified cyclin-kinase pairs were obtained from the following suppliers: Carna Biosciences (CDK1-Cyclin B1, CDK6-Cyclin D3, CDK7-Cyclin H-MAT1), ProQinase (CDK2-Cyclin A) and Invitrogen (CDK9-Cyclin T1).
Data were analyzed with GraphPad Prism 7 software. Differences were assessed by unpaired or paired Student t tests if not indicated otherwise. Two-sided probabilities of less than 0.05 were considered significant. Nonlinear regression sigmoidal dose-response curve fit was used to determine the IC50 values and to generate graphs.

[1] = tested on: panel of 219 recombinant kinases; experiment: Broad in vitro selectivity kinase profiling; type: biochemical; details: 1 μM LDC526, 219 kinases
Description: IC50 values for CDK inhibitors were determined using the fluorescence resonance energy transfer (FRET)-based LANCE Ultra KinaSelect Ser/Thr kit (Perkin Elmer). Kinase activity and inhibition were measured according to the manufacturer’s instructions and as previously described. […] Subsequently, phosporylation was detected by addition of specific europium (Eu)-labeled anti-phospho-antibodies (2 nM), which upon binding to the phospho-peptide give rise to a FRET signal. FRET signals were recorded in a time-resolved manner in a Perkin Elmer EnVision reader. Purified cyclin-kinase pairs were obtained from the following suppliers: Carna Biosciences (CDK1-Cyclin B1, CDK6-Cyclin D3, CDK7-Cyclin H-MAT1), ProQinase (CDK2-Cyclin A) and Invitrogen (CDK9-Cyclin T1). Broad selectivity kinase in vitro profiling with LDC526 was carried out using n=219 recombinant kinases (Millipore/Merck, Darmstadt, Germany).

[2] = tested on: blood and splenic leukocytes of wild-type mice; experiment: Wild-type littermate control mice, oral LDC526, blood and spleen analysis; type: in vivo
Excerpt: Another widely used preclinical CLL model are TCL1 transgenic mice. The TCL1 transgenics represent a constitutive CLL model not involving the adoptive transfer of cells. This model mirrors the natural course of human IgVH-unmutated CLL including its disease progression. In addition, this model has also been widely used by others to test novel therapeutic molecules. […] Consecutive blood sampling allowed us to carry out a longitudinal study in individual TCL1 and control mice. For this, we chose a cohort of TCL1 and littermate control mice, which were 9-12 months old (Figure 5A). We chose TCL1 transgenics with high peripheral CLL cell (CD19+CD5+) counts (14.6±7.4/nl, mean±SEM). Given the presumably high leukemic burden in these aged TCL1 mice and the reduced general condition of some NSG mice receiving 75 mg/kg for 5 days we decided to dose TCL1 mice with 50 mg/kg daily for two consecutive days (Figure 5A). As the experiment was longitudinally designed and there was no effect expected of administering carrier to wild-type control mice we omitted this control group and established three experimental groups (Figure 5A). In order to minimize stress by collecting blood specimens we sampled blood three times, 8 days apart (days -5, +3 and +11; Figure 5A). Compared to blood smears prepared before commencing LDC526 treatment a marked decrease of peripheral blood leukocytes and CLL cells was observed two days post the last LDC526 administration to TCL1 transgenic mice (Figure 5B). In contrast to the carrier control treated TCL1 mice, white blood cell counts (WBC) dropped in LDC526-treated wild-type and TCL1 mice (Figure 5C). In comparison to wild-type control mice, where WBC dropped to 34% of baseline values, the WBC decrease in TCL1 mice was more dramatic dropping to 8% of baseline values (Figure 5D).
On day +11 (Figure 5A) the experiment was terminated as planned and spleens of the experimental mice were harvested. To be able to assess the impact of LDC526 on wild-type spleens we included n=3 of non-treated age-matched wild-type littermate mice as an additional experimental control group in the final spleen analysis. A caveat of this final spleen analysis posed the fact that in contrast to the longitudinal blood analysis, baseline spleen data of individual aged TCL1 mice were not available. As longitudinal analysis was not possible, we now compared spleen parameters between cohorts. Importantly, it is unknown to which extent the amount of circulating peripheral blood TCL1 CLL cells determined at baseline correlates with splenomegaly. […]
All mice were bred and housed at the University Hospital Essen animal care facility. […] Peripheral blood counts were determined with the VetABC analyzer (scil, Viernheim, Germany). […]

T1 sequence (P50613 whole entry): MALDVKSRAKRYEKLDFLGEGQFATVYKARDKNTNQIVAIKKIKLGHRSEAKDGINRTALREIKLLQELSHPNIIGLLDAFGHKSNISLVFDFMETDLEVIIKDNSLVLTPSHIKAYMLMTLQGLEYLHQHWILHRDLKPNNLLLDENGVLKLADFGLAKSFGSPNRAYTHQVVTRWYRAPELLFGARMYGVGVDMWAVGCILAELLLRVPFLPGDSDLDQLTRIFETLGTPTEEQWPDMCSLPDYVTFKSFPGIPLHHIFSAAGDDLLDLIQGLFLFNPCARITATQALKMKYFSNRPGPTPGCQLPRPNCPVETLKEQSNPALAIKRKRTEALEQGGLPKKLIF
T1 sequence (P51946 whole entry partner): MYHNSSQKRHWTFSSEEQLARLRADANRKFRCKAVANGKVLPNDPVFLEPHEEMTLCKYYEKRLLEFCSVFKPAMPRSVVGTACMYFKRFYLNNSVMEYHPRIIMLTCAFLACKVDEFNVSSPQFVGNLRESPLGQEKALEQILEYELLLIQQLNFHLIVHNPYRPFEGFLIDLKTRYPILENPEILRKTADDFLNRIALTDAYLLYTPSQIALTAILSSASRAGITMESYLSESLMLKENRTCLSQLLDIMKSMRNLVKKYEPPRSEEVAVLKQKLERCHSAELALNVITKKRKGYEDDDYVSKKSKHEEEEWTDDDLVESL
T1 sequence (P51948 whole entry partner): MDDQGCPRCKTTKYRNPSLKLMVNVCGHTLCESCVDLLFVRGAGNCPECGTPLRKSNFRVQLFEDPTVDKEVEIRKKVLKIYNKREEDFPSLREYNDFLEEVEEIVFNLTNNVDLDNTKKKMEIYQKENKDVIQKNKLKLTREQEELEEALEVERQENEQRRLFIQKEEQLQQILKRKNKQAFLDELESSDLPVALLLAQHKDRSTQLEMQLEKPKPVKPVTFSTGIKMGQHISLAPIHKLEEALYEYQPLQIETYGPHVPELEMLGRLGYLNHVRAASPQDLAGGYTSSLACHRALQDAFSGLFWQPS

For COc1cc(F)ccc1-c1ncnc(Nc2cccc(CS(N)(=O)=O)c2)n1 [LDC526, (3-((4-(4-fluoro-2-methoxyphenyl)-1,3,5-triazin-2-yl)amino)phenyl)methane-sulfonamide], the IC50 (CDK7-Cyclin H-MAT1) was greater than 10 µM, the “share of tested kinases still displaying an activity of greater than 80%” value [1] was “More than 85%” and the “WBC, percent of baseline values” ([2]; 50 mg/kg daily for two days, day +3) was 34%. The “concentration of wild-type blood T cells” value ([2]; 50 mg/kg for two days) was “halved”, the “splenic B cell numbers, percent of untreated mice” value ([2]; day +11) was 31% and the “B cells, percent of baseline levels” value ([2]; peripheral blood) was 3.7%.
